In ChEMBL document CHEMBL1157539, “Thousands of chemical starting points for antimalarial lead identification” (Nature, 2010) one finds XC50 data, which are given here for 45 compounds.

Counter-ions that a name gives are not always drawn.

In one assay the test system is Plasmodium falciparum. As to the kind of experiment: GSK_TCMDC: Inhibition of Plasmodium falciparum 3D7 in whole erythrocytes, using parasite LDH activity as an index of growth. It counts as functional, organism-based.
Settings: not given
`CCOc1ccc2nccc([C@@H](O)[C@@H]3C[C@@H]4CCN3C[C@@H]4CC)c2c1` [ETHYLHYDROCUPREINE HYDROCHLORIDE] came in with an XC50 of 112 nM.
`CCOc1ccc2nccc([C@@H](O)[C@@H]3C[C@@H]4CCN3C[C@@H]4CC)c2c1` [ETHYLHYDROCUPREINE]: the XC50 came to 612 nM.
Still for that read-out and setting: with `CN(Cc1cnc2nc(N)nc(N)c2n1)c1ccc(C(=O)N[C@@H](CCC(=O)O)C(=O)O)cc1` [METHOTREXATE] the figure was 178 nM.
The same measure, in the same setting: with `COc1ccc(C[C@H](N)C(=O)N[C@H]2[C@@H](O)[C@H](n3cnc4c(N(C)C)ncnc43)O[C@@H]2CO)cc1` [PUROMYCIN] the figure was 174 nM.
Consider `CCc1nc(N)nc(N)c1-c1ccc(Cl)cc1` [PYRIMETHAMINE], for which the XC50 stood at 31.8 nM.
`C=C[C@H]1CN2CC[C@H]1C[C@H]2[C@H](O)c1ccnc2ccc(OC)cc12` [QUININE HYDROCHLORIDE] returned an XC50 of 95.2 nM.

Still in this assay, the particulars now being: Plasmodium falciparum, 3D7.
As for `O=P(O)(O)Oc1c(Br)cc(Br)cc1-c1cc(Br)cc(Br)c1O` [BROMOFENOFOS], the XC50 was determined as 173 nM.
On the same count and under the same terms, with `CC1=CC(=O)[C@@H](O)[C@]2(C)[C@H]3[C@@]4(O)OC[C@@]35[C@@H](C[C@@H]12)OC(=O)C[C@H]5[C@@H](C)[C@H]4O` [CHAPARRINONE] the figure was 347 nM; with `CCN(CC)CCCC(C)Nc1ccnc2cc(Cl)ccc12` (stereo not drawn) [CHLOROQUINE PHOSPHATE], 178 nM; with `C=C[C@H]1CN2CC[C@H]1C[C@H]2[C@H](O)c1ccnc2ccccc12` [CINCHONIDINE], 172 nM.
The same measure, in the same setting: with `C=C[C@H]1CN2CC[C@H]1C[C@@H]2[C@@H](O)c1ccnc2ccccc12` [CINCHONINE] the figure was 766 nM; with `C[C@@H]1C[C@@H]([C@H](O)CC2CC(=O)NC(=O)C2)C(=O)[C@@H](C)C1` [CYCLOHEXIMIDE], 527 nM.
On the same count and under the same terms, with `O=c1ccc2ccc(O)c(O)c2o1` [DAPHNETIN] the figure was 32.2 nM; with `CCC1=C(CC2NCCc3cc(OC)c(OC)cc32)CC2c3cc(OC)c(OC)cc3CCN2C1` (stereo not drawn) [DIHYDROEMETINE], 312 nM.
`CCC(Cc1cnc2nc(N)nc(N)c2n1)c1ccc(C(=O)N[C@@H](CCC(=O)O)C(=O)O)cc1` (stereo partly drawn) [EDATREXATE] displayed an XC50 of 36.7 nM.
In turn, `Cc1c2ccncc2c(C)c2c1[nH]c1ccccc12` [ELLIPTECINE] came in with an XC50 of 796 nM.
Same read-out and setting: with `CC[C@H]1CN2CCc3cc(OC)c(OC)cc3[C@@H]2C[C@@H]1C[C@H]1NCCc2cc(OC)c(OC)cc21` [EMETINE] the figure was 214 nM.
Same read-out and setting: with `CCOc1cc(Cc2cnc(N)nc2N)cc(OCC)c1-n1cccc1` [EPIROPRIM] the figure was 761 nM; with `CN(C)c1cc2c(Nc3ccc4nc(Cc5ccccc5)[nH]c4c3)ncnc2cn1` [GW301888X], 1140 nM; with `Cc1ccc(O)cc1Nc1ccnc2cc(-c3ccccn3)ccc12` [GW440139A], 761 nM.
The same measure, in the same setting: with `CS(=O)(=O)CCNCc1ccc(-c2ccc3ncnc(Nc4ccc(OCc5ccccc5)c(Cl)c4)c3c2)o1` [GW574783B] the figure was 557 nM; with `Nc1ncnc2occ(-c3ccc(NC(=O)Nc4cc(C(F)(F)F)ccc4F)cc3)c12` [GW770249A], 1720 nM.
Take `CCS(=O)(=O)Nc1ccc2c(c1)/C(=C(/Nc1ccc(CN3CCCCC3)cc1)c1ccccc1)C(=O)N2` [HESPERADIN]: the XC50 was 56.5 nM.
Still for that read-out and setting: with `COc1c(O)cc2oc(-c3ccc(O)cc3)cc(=O)c2c1O` [HISPIDULIN] the figure was 771 nM; with `CCN(CCO)CCCC(C)Nc1ccnc2cc(Cl)ccc12` (stereo not drawn) [HYDROXYCHLOROQUINE SULFATE], 762 nM.
Same read-out and setting: with `O=C(Nc1cc(C(F)(F)F)cc(C(F)(F)F)c1)c1cc(Cl)ccc1O` [IMD-0354] the figure was 1310 nM; with `O=C(Nc1cccc(C2=NCCN2)c1)Nc1cccc(C2=NCCN2)c1` [IMIDOCARB], 419 nM.
Same read-out and setting: with `c1ccc([C@H]2CN3CCSC3=N2)cc1` [LEVAMISOLE] the figure was 622 nM; with `CN(Cc1cnc2nc(N)nc(N)c2n1)c1ccc(C(=O)N[C@@H](CCC(=O)O)C(=O)O)cc1` [METHOTREXATE], 100 nM; with `Cc1nc(N)nc(N)c1-c1ccc(Cl)c(Cl)c1` [METOPRINE], 79.6 nM.
As to `CC(C)=CCc1c(-c2ccc(O)cc2O)oc2c3c(cc(O)c2c1=O)OC(C)(C)C=C3` [MORUSIN], the XC50 was determined as 977 nM.
Same read-out and setting: with `CCCCCCCC/C=C\CCCCCCCC(=O)NCc1ccc(O)c(OC)c1` [OLVANIL] the figure was 402 nM; with `Cc1nc2ccc3ccc(CNc4ccc5c(c4)CN([C@@H](CCC(=O)O)C(=O)O)C5=O)cc3c2c(=O)[nH]1` [OSI-7904], 164 nM.
The compound `CCCCc1ccc2[nH]c(NC(=O)OC)nc2c1` [PARBENDAZOLE] yielded an XC50 of 683 nM.
Compound `CCN(CC)CCOc1ccc(Nc2ncc3cc(-c4c(Cl)cccc4Cl)c(=O)n(C)c3n2)cc1` [PD-0166285] gave an XC50 of 1180 nM.
Take `N=C(N)c1ccc(OCCCCCOc2ccc(C(=N)N)cc2)cc1` [PENTAMIDINE HYDROCHLORIDE]: the XC50 amounted to 140 nM.
The same measure, in the same setting: with `Cc1[nH]c(/C=C2\C(=O)Nc3ccc(S(=O)(=O)Cc4c(Cl)cccc4Cl)cc32)c(C)c1C(=O)N1CCC[C@@H]1CN1CCCC1` [PHA-665752] the figure was 720 nM; with `COc1ccc(OC)c(Cc2cnc3nc(N)nc(N)c3c2C)c1` [PIRITREXIM], 10.2 nM.
The same measure, in the same setting: with `COc1cc2c(cc1O)[C@@H]1[C@H](O)[C@@H](O)C=C3CCN(C2)[C@H]31` [PSEUDOLYCORINE] the figure was 991 nM; with `CCc1nc(N)nc(N)c1-c1ccc(Cl)cc1` [PYRIMETHAMINE], 59.5 nM.
Consider `C=C[C@H]1CN2CC[C@H]1C[C@@H]2[C@@H](O)c1ccnc2ccc(OC)cc12` [QUINIDINE], for which the XC50 is 118 nM.
`C=C[C@H]1CN2CC[C@H]1C[C@H]2[C@H](O)c1ccnc2ccc(OC)cc12` [QUININE HYDROCHLORIDE] registered an XC50 of 145 nM.
`c1ccc(-c2cccc(-c3ccccn3)n2)nc1` [TERPYRIDINE] showed an XC50 of 901 nM.
In the case of `c1ccc(CC2=NCCN2)cc1` [TOLAZOLINE HYDROCHLORIDE], the XC50 came out at 188 nM.
For the compound `CN1CCC(COC(=O)C(O)(c2ccccc2)c2ccccc2)C1` (stereo not drawn) [TRICLAZATE], the XC50 came to 997 nM.
On the same count and under the same terms, with `COc1cc(Cc2cnc(N)nc2N)cc(OC)c1OC` [TRIMETHOPRIM] the figure was 755 nM; with `O=C1c2ccccc2-n2c1nc1ccccc1c2=O` [TRYPTANTHRIN], 856 nM; with `FC(F)c1nc2ccccc2n1-c1nc(N2CCOCC2)nc(N2CCOCC2)n1` [ZSTK-474], 761 nM.
